pEC50: −log10 of the molar value.

The target of this assay is T1, PACAP-R2 (Homo sapiens, UniProt P32241).
T1 construct: expressed in transfected cells; host or cells: CHO cells
T1 sequence (P32241 31-457): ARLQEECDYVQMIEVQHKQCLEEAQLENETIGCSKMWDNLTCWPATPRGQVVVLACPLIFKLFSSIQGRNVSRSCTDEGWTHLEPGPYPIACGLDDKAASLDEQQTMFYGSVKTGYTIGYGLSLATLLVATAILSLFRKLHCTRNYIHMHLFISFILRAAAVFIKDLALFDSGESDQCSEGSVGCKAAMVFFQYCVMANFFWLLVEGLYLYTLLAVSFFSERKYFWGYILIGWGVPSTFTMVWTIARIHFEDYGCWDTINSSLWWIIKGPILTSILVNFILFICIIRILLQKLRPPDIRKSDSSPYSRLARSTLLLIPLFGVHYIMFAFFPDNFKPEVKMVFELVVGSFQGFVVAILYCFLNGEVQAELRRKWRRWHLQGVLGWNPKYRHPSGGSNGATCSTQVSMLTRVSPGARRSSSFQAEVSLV
Nature of the assay: Cyclic AMP SPA on CHO cells transfected with PACAP-R2. In kind it is cell-based. The note with it: cAMP SPA, concentration at which 50% of maximum PACAP27 activity is achieved, NA = no detectable activities, read-out: R2 EC50. The protocol: CHO cells expressing the PACAP R3 were plated in 96-well plates (Costar) at 8×10^4 cell/well and grown at 37 C. for 24 hours in α MEM+nucleosides+glutamine (Giobco BRL), 10% FBS, 100 μg/ml Pen/Strep, 0.3 mg/ml glutamine, 1 mM HEPES, 0.5 mg/ml Geneticin (Gibco BRL). The media was removed and the plates were washed with PBS. The cells were incubated with a peptide, in Hepes-PBS-BSA with 0.4 mg/mlSoybean Trypsin Inhibitor, 0.5 mg/ml Bacitracin, 100 uM IBMX, for 15 min at 37 C. Cyclic AMP in the cell extracts was quantitated using the cAMP SPA direct screening assay system (Amersham Pharmacia Biotech Inc, Piscataway, N.J.,). The peptides shown in Table 3 were assayed for cAMP activity.
EC50 is defined as the concentration of the polypeptide at which 50% of maximum PACAP27 activity is achieved. “NA” denotes no detectable activities. “R3 Selectivity” is derived from the ratio of EC50 at R2 versus EC50 at R3.

One may read the pEC50 as the negative decadic logarithm of the EC50, by convention in mol/L. As for `CC[C@H](C)[C@H](NC(=O)[C@H](CO)NC(=O)[C@H](CC(N)=O)NC(=O)[C@H](CC(C)C)NC(=O)[C@H](Cc1ccc(O)cc1)NC(=O)[C@H](CCCCN)NC(=O)[C@H](CCCCN)NC(=O)[C@@H](NC(=O)[C@H](C)NC(=O)[C@H](CCSC)NC(=O)[C@H](CCC(N)=O)NC(=O)[C@H](CCCCN)NC(=O)[C@H](CCCNC(=N)N)NC(=O)[C@H](CC(C)C)NC(=O)[C@H](CCCNC(=N)N)NC(=O)[C@@H](NC(=O)[C@H](Cc1ccc(O)cc1)NC(=O)[C@H](CC(N)=O)NC(=O)[C@H](CC(=O)O)NC(=O)[C@@H](NC(=O)[C@H](Cc1ccccc1)NC(=O)[C@@H](NC(=O)[C@H](C)NC(=O)[C@H](CC(=O)O)NC(=O)[C@H](CO)NC(=O)[C@@H](N)Cc1c[nH]cn1)C(C)C)[C@@H](C)O)[C@@H](C)O)C(C)C)C(=O)N[C@@H](CCCCN)C(=O)N[C@@H](CC(N)=O)C(=O)N[C@@H](CCCCN)C(=O)N[C@@H](CCCNC(=N)N)C(=O)O` [Peptide R3P113], the pEC50 was 8.52.

For `CC[C@H](C)[C@H](NC(=O)[C@H](CO)NC(=O)[C@H](CC(N)=O)NC(=O)[C@H](CC(C)C)NC(=O)[C@H](Cc1ccc(O)cc1)NC(=O)[C@H](CCCCN)NC(=O)[C@H](CCCCN)NC(=O)[C@@H](NC(=O)[C@H](C)NC(=O)[C@H](CCSC)NC(=O)[C@H](CCC(N)=O)NC(=O)[C@H](CCCCN)NC(=O)[C@H](CCCNC(=N)N)NC(=O)[C@H](CC(C)C)NC(=O)[C@H](CCCNC(=N)N)NC(=O)[C@@H](NC(=O)[C@H](Cc1ccc(O)cc1)NC(=O)[C@H](CC(N)=O)NC(=O)[C@H](CC(=O)O)NC(=O)[C@@H](NC(=O)[C@H](Cc1ccccc1)NC(=O)[C@@H](NC(=O)[C@H](C)NC(=O)[C@H](CC(=O)O)NC(=O)[C@H](CO)NC(=O)[C@@H](N)Cc1c[nH]cn1)C(C)C)[C@@H](C)O)[C@@H](C)O)[C@@H](C)O)C(=O)N[C@@H](CCCCN)C(=O)N[C@@H](CC(N)=O)C(=O)N[C@@H](CCCCN)C(=O)N[C@@H](CCCNC(=N)N)C(=O)O` [Peptide R3P112], the pEC50 is 8.40.

Turning to `CC[C@H](C)[C@H](NC(=O)[C@H](CO)NC(=O)[C@H](CC(N)=O)NC(=O)[C@H](CC(C)C)NC(=O)[C@H](Cc1ccc(O)cc1)NC(=O)[C@H](CCCCN)NC(=O)[C@H](CCCCN)NC(=O)[C@H](C)NC(=O)[C@H](C)NC(=O)[C@H](CCSC)NC(=O)[C@H](CCC(N)=O)NC(=O)[C@H](CCCCN)NC(=O)[C@H](CCCNC(=N)N)NC(=O)[C@H](CC(C)C)NC(=O)[C@H](CCCNC(=N)N)NC(=O)[C@@H](NC(=O)[C@H](Cc1ccc(O)cc1)NC(=O)[C@H](CC(N)=O)NC(=O)[C@H](CC(=O)O)NC(=O)[C@@H](NC(=O)[C@H](Cc1ccccc1)NC(=O)[C@@H](NC(=O)[C@H](C)NC(=O)[C@H](CC(=O)O)NC(=O)[C@H](CO)NC(=O)[C@@H](N)Cc1c[nH]cn1)C(C)C)[C@@H](C)O)[C@@H](C)O)C(=O)N[C@@H](CCCCN)C(=O)N[C@@H](CC(N)=O)C(=O)N[C@@H](CCCCN)C(=O)N[C@@H](CCC(N)=O)C(=O)O` [Peptide R3P166], the pEC50 was 7.30.

With `CC[C@H](C)[C@H](NC(=O)[C@H](CO)NC(=O)[C@H](CC(N)=O)NC(=O)[C@H](CC(C)C)NC(=O)[C@H](Cc1ccc(O)cc1)NC(=O)[C@H](CCCCN)NC(=O)[C@H](CCCCN)NC(=O)[C@H](C)NC(=O)[C@H](C)NC(=O)[C@H](CCSC)NC(=O)[C@H](CCC(N)=O)NC(=O)[C@H](CCCCN)NC(=O)[C@H](CCCNC(=N)N)NC(=O)[C@H](CC(C)C)NC(=O)[C@H](CCCNC(=N)N)NC(=O)[C@@H](NC(=O)[C@H](Cc1ccc(O)cc1)NC(=O)[C@H](CC(N)=O)NC(=O)[C@H](CC(=O)O)NC(=O)[C@@H](NC(=O)[C@H](Cc1ccccc1)NC(=O)[C@@H](NC(=O)[C@H](C)NC(=O)[C@H](CC(=O)O)NC(=O)[C@H](CO)NC(=O)[C@@H](N)Cc1c[nH]cn1)C(C)C)[C@@H](C)O)[C@@H](C)O)C(=O)N[C@H](C(=O)N[C@@H](CC(N)=O)C(=O)N[C@@H](CCCCN)C(=O)N[C@@H](CCCNC(=N)N)C(=O)O)[C@@H](C)CC` [Peptide R3P123], the pEC50 is 8.30.

Consider `CC[C@H](C)[C@H](NC(=O)[C@H](CO)NC(=O)[C@H](CC(N)=O)NC(=O)[C@H](CC(C)C)NC(=O)[C@H](Cc1ccc(O)cc1)NC(=O)[C@H](CCCCN)NC(=O)[C@H](CCCCN)NC(=O)[C@H](C)NC(=O)[C@H](C)NC(=O)[C@H](CCSC)NC(=O)[C@H](CCC(N)=O)NC(=O)[C@H](CCCCN)NC(=O)[C@H](CCCNC(=N)N)NC(=O)[C@H](CC(C)C)NC(=O)[C@H](CCCNC(=N)N)NC(=O)[C@@H](NC(=O)[C@H](Cc1ccc(O)cc1)NC(=O)[C@H](CC(N)=O)NC(=O)[C@H](CC(=O)O)NC(=O)[C@@H](NC(=O)[C@H](Cc1ccccc1)NC(=O)[C@@H](NC(=O)[C@H](C)NC(=O)[C@H](CC(=O)O)NC(=O)[C@H](CO)NC(=O)[C@@H](N)Cc1c[nH]cn1)C(C)C)[C@@H](C)O)[C@@H](C)O)C(=O)N[C@@H](Cc1ccc(O)cc1)C(=O)N[C@@H](CC(N)=O)C(=O)N[C@@H](CCCCN)C(=O)N[C@@H](CCCNC(=N)N)C(=O)O` [Peptide R3P133], for which the pEC50 was 8.10.

With `CC[C@H](C)[C@H](NC(=O)[C@H](CO)NC(=O)[C@H](CC(N)=O)NC(=O)[C@H](CC(C)C)NC(=O)[C@H](Cc1ccc(O)cc1)NC(=O)[C@H](CCCCN)NC(=O)[C@H](CCCCN)NC(=O)[C@H](C)NC(=O)[C@H](C)NC(=O)[C@H](CCSC)NC(=O)[C@H](CCC(N)=O)NC(=O)[C@H](CCCCN)NC(=O)[C@H](CCCNC(=N)N)NC(=O)[C@H](CC(C)C)NC(=O)[C@H](CCCNC(=N)N)NC(=O)[C@@H](NC(=O)[C@H](Cc1ccc(O)cc1)NC(=O)[C@H](CC(N)=O)NC(=O)[C@H](CC(=O)O)NC(=O)[C@@H](NC(=O)[C@H](Cc1ccccc1)NC(=O)[C@@H](NC(=O)[C@H](C)NC(=O)[C@H](CC(=O)O)NC(=O)[C@H](CO)NC(=O)[C@@H](N)Cc1c[nH]cn1)C(C)C)[C@@H](C)O)[C@@H](C)O)C(=O)N[C@@H](CCSC)C(=O)N[C@@H](CC(N)=O)C(=O)N[C@@H](CCCCN)C(=O)N[C@@H](CCCNC(=N)N)C(=O)O` [Peptide R3P124], the pEC50 was 8.52.

Turning to `CC[C@H](C)[C@H](NC(=O)[C@H](CO)NC(=O)[C@H](CC(N)=O)NC(=O)[C@H](CC(C)C)NC(=O)[C@H](Cc1ccc(O)cc1)NC(=O)[C@H](CCCCN)NC(=O)[C@H](CCCCN)NC(=O)[C@H](C)NC(=O)[C@H](C)NC(=O)[C@H](CCSC)NC(=O)[C@H](CCC(N)=O)NC(=O)[C@H](CCCCN)NC(=O)[C@H](CCCNC(=N)N)NC(=O)[C@H](CC(C)C)NC(=O)[C@H](CCCNC(=N)N)NC(=O)[C@@H](NC(=O)[C@H](Cc1ccc(O)cc1)NC(=O)[C@H](CC(N)=O)NC(=O)[C@H](CC(=O)O)NC(=O)[C@@H](NC(=O)[C@H](Cc1ccccc1)NC(=O)[C@@H](NC(=O)[C@H](C)NC(=O)[C@H](CC(=O)O)NC(=O)[C@H](CO)NC(=O)[C@@H](N)Cc1c[nH]cn1)C(C)C)[C@@H](C)O)[C@@H](C)O)C(=O)N[C@@H](CCCCN)C(=O)N[C@@H](CC(N)=O)C(=O)N[C@@H](CCCCN)C(=O)N[C@@H](CO)C(=O)O` [Peptide R3P167], the pEC50 was 6.52.

For the origin of these results see patent US6972319B1, “Pituitary adenylate cyclase activating peptide (PACAP)receptor 3 (R3) agonists and their pharmacological methods of use” (priority 1999, dated 2005).
